Source: article PMC6679423 (International Journal of Molecular Sciences, 2019)

Assays:
Format in all cases: in vitro ADME
CYP2D6, 3A5, 1A1 and 2C8 = experiment: Contributions of other CYPs to N-desmethylvandetanib formation in human livers; conditions: with cytochrome b5
Experimental: The contributions of these enzymes were calculated by relative activity factor because the activities of CYPs in Supersomes™ also need to be considered in addition to the relative contents of CYPs in the livers. […] Of CYPs in human liver, CYP3A4 is the major enzyme present in this human organ (~30% of the CYP hepatic complement), followed by CYP2C9 and 1A2 (~15% and ~13%, respectively), while CYP2C19, 2E1 2A6, 2D6, 2C8 and 3A5 are present in human liver at levels that range from ~2.5% to ~8.5% (see Reference for an overview).

human liver microsomes = experiment: Vandetanib metabolite formation by hepatic microsomes of 12 human donors
human recombinant CYP2C8 = experiment: Vandetanib oxidation by human recombinant CYP2C8 (Supersomes)
Experimental: Vandetanib was from LC Laboratories (Woburn, MA, USA). Ketoconazole, NADPH, methimazol and other chemicals were all purchased from Sigma-Aldrich (St. Louis, MO, USA). The purity of all chemicals met the standards of American Chemical Society, unless noted otherwise. All animal experiments were conducted in accordance with the Regulations for the Care and Use of Laboratory Animals (311/1997, Ministry of Agriculture, Czech Republic), which follows the Declaration of Helsinki. Male Wistar rats (~125–150 g; AnLab, Czech Republic), male C57BL/6 mice ([…]; CXR Bioscience Ltd., Dundee, UK), and male New Zealand rabbits (2.5–3 kg; AnLab, Czech Republic) were employed as animal models. Animals were placed in cages in temperature- and humidity-controlled rooms, acclimatized for five days and maintained at 22 °C with a 12 h light/dark period. Standardized diet and water were provided ad libitum. Rats, mice and rabbits used to prepare microsomal fraction from untreated animals were sacrificed by cervical dislocation, livers snap-frozen in liquid nitrogen and stored at −80 °C until further processing (see below). […] Protein concentrations in the microsomal fractions were assessed using the bicinchoninic acid protein assay with bovine serum albumin as a standard. […]

human recombinant CYP3A4 = biological target: T1, human recombinant CYP3A4 (Homo sapiens, UniProt P08684); experiment: Vandetanib oxidation by human recombinant CYP3A4 (Supersomes)
T1 construct: purchased Gentest Corp; host or cells: insect cells (baculovirus)
T1 sequence (P08684 2-503 limits assumed): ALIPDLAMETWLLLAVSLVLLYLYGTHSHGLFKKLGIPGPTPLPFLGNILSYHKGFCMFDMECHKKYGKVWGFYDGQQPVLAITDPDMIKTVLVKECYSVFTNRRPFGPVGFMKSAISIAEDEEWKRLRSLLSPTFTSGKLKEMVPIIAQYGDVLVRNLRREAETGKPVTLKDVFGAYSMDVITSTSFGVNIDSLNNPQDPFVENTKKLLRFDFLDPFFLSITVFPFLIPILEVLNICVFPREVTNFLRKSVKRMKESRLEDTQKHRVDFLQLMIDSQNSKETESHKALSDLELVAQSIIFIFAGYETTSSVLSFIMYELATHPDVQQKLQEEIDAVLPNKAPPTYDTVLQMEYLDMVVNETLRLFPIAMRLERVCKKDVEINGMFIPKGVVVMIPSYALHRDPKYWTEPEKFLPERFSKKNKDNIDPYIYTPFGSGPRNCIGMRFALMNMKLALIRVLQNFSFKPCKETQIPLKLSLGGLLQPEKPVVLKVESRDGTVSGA
Experimental: The purity of all chemicals met the standards of American Chemical Society, unless noted otherwise. […] Animals were placed in cages in temperature- and humidity-controlled rooms, acclimatized for five days and maintained at 22 °C with a 12 h light/dark period. Standardized diet and water were provided ad libitum. Rats, mice and rabbits used to prepare microsomal fraction from untreated animals were sacrificed by cervical dislocation, livers snap-frozen in liquid nitrogen and stored at −80 °C until further processing (see below). For controls, livers of the animals were removed immediately after sacrifice, divided into small pieces (~1 g), snap-frozen in liquid nitrogen, and stored at −80 °C until isolation of microsomal fractions. Pooled microsomes were used for all in vitro experiments in the present study and prepared from 10 livers/group for all animal species following established protocols. Microsomal fractions were stored at −80 °C until analysis. Protein concentrations in the microsomal fractions were assessed using the bicinchoninic acid protein assay with bovine serum albumin as a standard. […] Microsomes from livers of twelve human donors were obtained from Gentest Corp. (Woburn, MA, USA) (cat. no. HG43–1, HG103, HG74, HG93, HG24, HG27, HG23, HG32, HK31, HK34, HG03, and HG42). […]

[1] = without consideration of cytochrome b5

contribution in total of other human CYPs (CYP2D6, 3A5, 1A1 and 2C8) to N-desmethylvandetanib formation (CYP2D6, 3A5, 1A1 and 2C8): ~ 0.4% | N-desmethylvandetanib (M1) formed (human liver microsomes; human hepatic microsomal sample HK23): 4.137 peak area/(mg protein × min) | N-desmethylvandetanib (M1) formed (human liver microsomes; human hepatic microsomal sample HK27): 1.762 peak area/(mg protein × min) | fold increase of N-desmethylvandetanib formation by cytochrome b5 (human recombinant CYP2C8; CYP2C8 with vs without cytochrome b5): 1.6 fold | contribution of CYP2C8 to N-desmethylvandetanib formation in human liver (human recombinant CYP2C8; [1]): < 0.3% | contribution of CYP3A4 to N-desmethylvandetanib formation in human liver (human recombinant CYP3A4; with cytochrome b5): ~ 99.6% | contribution of CYP3A4 to N-desmethylvandetanib formation in human liver (human recombinant CYP3A4; [1]): ~ 97.7%
Compound: COc1cc2c(Nc3ccc(Br)cc3F)ncnc2cc1OCC1CCNCC1 [N-desmethylvandetanib]
